Laboratory results published in patent US8344146B2, “Inhibitor of DD-peptidase and its use as antibiotic or anticancer drug” (Narodowy Instytut Zdrowia Publicznego-Panstwowy Zaklad …, priority 2007, dated 2013).
Values after ≈ are worked out from the molar mass of the structure shown.

Legend:
[1] = target: T1, DD-peptidase R39 (Actinomadura sp., UniProt P39045); assay: Life of the inhibitor-enzyme complex, R39; type: biochemical, Actinomadura sp. R39
T1 construct: extracellular DD-peptidase R39 produced by Actinomadura sp; R39; gift: Prof; Jean-Maria Ghuysen; host or cells: Actinomadura sp; R39 (natural producer, secreted)
T1 sequence (P39045 50-538): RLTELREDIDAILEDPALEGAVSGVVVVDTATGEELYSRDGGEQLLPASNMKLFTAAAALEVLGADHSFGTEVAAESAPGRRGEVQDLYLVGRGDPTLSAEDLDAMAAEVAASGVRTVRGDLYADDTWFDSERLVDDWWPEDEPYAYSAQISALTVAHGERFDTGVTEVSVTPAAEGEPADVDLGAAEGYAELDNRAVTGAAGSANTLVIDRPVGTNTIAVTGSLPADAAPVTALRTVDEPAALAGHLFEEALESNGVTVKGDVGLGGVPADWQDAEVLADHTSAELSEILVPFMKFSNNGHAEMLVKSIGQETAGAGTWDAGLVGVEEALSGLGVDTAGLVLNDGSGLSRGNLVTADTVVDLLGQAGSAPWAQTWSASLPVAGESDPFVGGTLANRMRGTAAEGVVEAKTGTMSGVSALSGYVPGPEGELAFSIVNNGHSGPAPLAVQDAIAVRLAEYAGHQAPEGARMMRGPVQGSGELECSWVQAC
Experimental: (§1) The Life of the Inhibitor-Enzyme Complex was Also Determined.
(§2) The incubation was performed from several to several dozen hours of each enzyme and inhibitor (as described above). Next, the reaction mixture was added, and determinations were performed.

[2] = Inhibitor characteristics: solubility; type: physicochemical
Text: • 1.) Solid yellow in colour. • 2.) Solubility. The inhibitor is soluble in PBS pH 7.2-8.0; soluble in an aqueous environment with low levels of K^+, Na^+. It also dissolves in methanol, DMSO, but degrades in these solvents.

[3] = tested on: Candida albicans ATCC 10231; assay: Antifungal activity analysis, disc on Sabourand medium; type: cell-based; conditions: discs with 1 mg, 35° C. for 24 h; inhibitor fractions following stage 2 of purification
Experimental: A Petri dish with solid Sabourand medium with 4% glucose was inoculated with a Candida albicans ATCC 10231 suspension, at 0.02 McF density. Tissue discs soaked in the inhibitor solution were then placed on the medium (1 mg). The incubation was performed at 35° C. for 24 h.

[4] = tested on: β-lactamase; assay: Inhibitor stability in a β-lactamase environment; type: biochemical
Experimental: Determination of Inhibitor Stability in a β-Lactamase Environment.
A method of evaluation inhibitor stability was designed using a combination of the above two methods. An initial incubation of the inhibitor with β-lactamase was performed, and then the reagents for determining DD-peptidase activity inhibition were added. The absorbance of the experimental sample was 0.05, whereas for the control sample (DD-peptidase) it was 0.35. […] It is not hydrolysed by β-lactamase.

[5] = tested on: class A β-lactamase (penicillinase, Penase); assay: β-lactamase inhibitor activity, nitrocefin method; type: biochemical; conditions: 482 nm, 30 min preincubation at 37° C.
Experimental: Determination of β-Lactamase Inhibitor Activity Using the Nitrocefin Method (O'Callaghan et al. 1972)^2.
reagents used in the assay: 0.1 mM nitrocefin solution containing 0.5 mg nitrocefin (Glaxo), 0.5 cm^3 DMSO (Fluka), 9.5 cm^3 0.1 M PBS pH 7.0; class A β-lactamase (penicillinase, Penase, 5×10^6 IU/ml, Bacto).
20 mm^3 of the examined inhibitor in 0.1 M PBS pH 7.0 were supplemented with 10 mm^3 β-lactamase, incubated for 30 min. at 37° C. Next, 30 mm^3 of 0.1 mM nitrocefin solution were added, and 430 mm^3 of 0.1M PBS pH 7.0. The samples were incubated for 10 min. at 37° C. and evaluated spectrophotometrically at 482 nm. The molar extinction coefficient was 15000 M^−1·cm^−1.

[6] = tested on: Proteus vulgaris NCTC 4635; assay: Spot-diffusion method, growth inhibition zones; type: cell-based; conditions: NCTC4635, 0.4 mg inhibitor per disc
Experimental: (§3) Inhibitor activity was also determined using the spot-diffusion method.
(§4) The analysis was performed using: Proteus vulgaris NCTC 4635, Bordetella bronchiseptica ATCC 4617, Stenotrophomonas maltophilia ATCC 13637. 24 bacterial cultures were used to make suspensions containing 0.2 McF, which was then diluted 100-fold. 0.1 ml of such a mixture was then placed on a dish with Muller-Hinton medium. Discs containing the examined inhibitor fractions were placed and incubated at 35° C. The determinations were carried out at 15 and 18 hours.
(§5) The following growth inhibition zones were obtained using 0.4 mg inhibitor per disc: […]

[7] = tested on: Bordetella bronchiseptica ATCC 4617; assay: Spot-diffusion method, growth inhibition zones; type: cell-based; conditions: ATCC4617, 0.4 mg inhibitor per disc
Experimental: as §3, §4, §5

[8] = tested on: Stenotrophomonas maltophilia ATCC 13637; assay: Spot-diffusion method, growth inhibition zones; type: cell-based; conditions: ATCC13637, 0.4 mg inhibitor per disc
Experimental: as §3, §4, §5

[9] = target: T1, DD-peptidase R39; assay: DD-peptidase R39 activity inhibition (ID50); type: biochemical; conditions: DD-peptidase R39, purified inhibitor; read-out: ID50 (M), molar concentration of inhibitor which inhibits 50% of enzyme activity
[10] = target: T2, DD-peptidase R61 (Streptomyces sp., UniProt P15555); assay: DD-peptidase R61 activity inhibition (ID50); type: biochemical; conditions: DD-peptidase R61, purified inhibitor; read-out: ID50 (M), molar concentration of inhibitor which inhibits 50% of enzyme activity
T2 construct: DD-peptidase R61 produced by Streptomyces sp; R61; gift: Prof; Jean-Maria Ghuysen; host or cells: Streptomyces sp; R61 (natural producer)
T2 sequence (P15555 32-380): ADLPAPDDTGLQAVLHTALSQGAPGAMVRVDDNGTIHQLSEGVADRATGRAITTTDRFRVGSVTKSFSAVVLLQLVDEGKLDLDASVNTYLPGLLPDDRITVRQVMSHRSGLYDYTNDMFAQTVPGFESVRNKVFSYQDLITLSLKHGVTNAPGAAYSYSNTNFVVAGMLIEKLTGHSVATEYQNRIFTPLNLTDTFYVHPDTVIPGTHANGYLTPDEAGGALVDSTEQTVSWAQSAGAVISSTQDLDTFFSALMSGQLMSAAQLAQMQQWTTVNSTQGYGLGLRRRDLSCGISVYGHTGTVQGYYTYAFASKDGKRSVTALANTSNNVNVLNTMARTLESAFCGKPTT

[11] = target: T2, DD-peptidase R61; assay: Life of the inhibitor-enzyme complex, R61; type: biochemical, Streptomyces sp. R61
Experimental: as §1, §2

[12] = tested on: Burkholderia cepacia ATCC 25416; assay: MIC, serial dilutions on solid media; type: cell-based; conditions: ATCC25416, MH II agar, 16 hours at 35° C., inhibitor fractions purified on ion-exchange column
Experimental: (§6) The antibacterial activity of the compound in question was determined using serial dilutions on solid media (MIC value determination) and using the spot-diffusion protocol. […] Standard bacterial strains used in the analysis:
(§7) A Petri dish was loaded with 0.25 ml of the sample in water and topped with MH II agar medium (Muller Hinton II) to 5 ml. The antibiotic concentration was 0.2 mg/ml medium. Additionally, a control without the antibiotic was made containing 5 ml of MH II. Using a densitometer, bacterial suspensions were made in NaCl solution containing 0.5 McF (10^8 CFU/ml), and subsequently dilutions thereof were made.
(§8) The following dilution series was made: • 10^4 CFU/ml NaCl for strains 6, 7, 8, 9 • 10^5 CFU/ml Nan for strains 1, 2, 3, 4, 5, 10, 11
(§9) After the medium set, 2 μl of bacterial suspension of each strain was inoculated onto the medium yielding 10^2 CFU/ml for strains 6, 7, 8, 9 and 10^3 CFU/ml for strains 1, 2, 3, 4, 5, 10, 11. Each suspension was loaded onto each plate. the incubation was performed for 16 hours at 35° C.

[13] = tested on: Proteus vulgaris NCTC 4635; assay: MIC, serial dilutions on solid media; type: cell-based; conditions: NCTC4635, MH II agar, 16 hours at 35° C., inhibitor fractions purified on ion-exchange column
Experimental: as §6, §7, §8, §9

[14] = tested on: Bordetella bronchiseptica ATCC 4617; assay: MIC, serial dilutions on solid media; type: cell-based; conditions: ATCC4617, MH II agar, 16 hours at 35° C., inhibitor fractions purified on ion-exchange column
Experimental: as §6, §7, §8, §9

[15] = tested on: Escherichia coli ATCC 25922; assay: MIC, serial dilutions on solid media; type: cell-based; conditions: ATCC25922, MH II agar, 16 hours at 35° C., inhibitor fractions purified on ion-exchange column
Experimental: as §6, §7, §8, §9

[16] = tested on: Stenotrophomonas maltophilia ATCC 13637; assay: MIC, serial dilutions on solid media; type: cell-based; conditions: ATCC13637, MH II agar, 16 hours at 35° C., inhibitor fractions purified on ion-exchange column
Experimental: as §6, §7, §8, §9

[17] = tested on: Staphylococcus aureus ATCC 6538P; assay: MIC, serial dilutions on solid media; type: cell-based; conditions: ATCC6538P, MH II agar, 16 hours at 35° C., inhibitor fractions purified on ion-exchange column
Experimental: as §6, §7, §8, §9

[18] = tested on: Klebsiella pneumoniae ATCC 13883; assay: MIC, serial dilutions on solid media; type: cell-based; conditions: ATCC13883, MH II agar, 16 hours at 35° C., inhibitor fractions purified on ion-exchange column
Experimental: as §6, §7, §8, §9

[19] = tested on: Enterococcus faecalis ATCC 29219; assay: MIC, serial dilutions on solid media; type: cell-based; conditions: ATCC29219, MH II agar, 16 hours at 35° C., inhibitor fractions purified on ion-exchange column
Experimental: as §6, §7, §8, §9

[20] = tested on: Acinetobacter baumanii ATCC 19606; assay: MIC, serial dilutions on solid media; type: cell-based; conditions: Acinetobacter baumannii, ATCC19606, MH II agar, 16 hours at 35° C., inhibitor fractions purified on ion-exchange column
Experimental: as §6, §7, §8, §9

[21] = tested on: Escherichia coli NCTC 8196; assay: MIC, serial dilutions on solid media; type: cell-based; conditions: NCTC8196, MH II agar, 16 hours at 35° C., inhibitor fractions purified on ion-exchange column
Experimental: as §6, §7, §8, §9

[22] = tested on: Staphylococcus aureus NCTC 4163; assay: MIC, serial dilutions on solid media; type: cell-based; conditions: NCTC4163, MH II agar, 16 hours at 35° C., inhibitor fractions purified on ion-exchange column
Experimental: as §6, §7, §8, §9

With `O=C1C=C2CC(C(=O)O)NC=C2C=C1O` (stereo not drawn) [inhibitor, 7-hydroxy-6-oxo-2,3,4,6-tetrahydroisochinolin-3-carboxylic acid] the “life of the inhibitor-DD-peptidase R 39 complex” value [1] was 3.5 h, the “solubility in PBS pH 7.2-8.0” value ([2]; PBS pH 7.2-8.0) was “soluble” and the “solubility in an aqueous environment with low levels of K+, Na+” value ([2]; aqueous, low levels of K+, Na+) was “soluble”. For the same compound, the “solubility in ethyl acetate, methylene chloride, chloroform, amyl acetate, acetonitrile” value ([2]; ethyl acetate, methylene chloride, chloroform, amyl acetate, acetonitrile) was “not soluble”, the “solubility in methanol, DMSO” value ([2]; methanol, DMSO) was “dissolves” and the “stability in methanol, DMSO” value ([2]; methanol, DMSO) was “degrades”. For the same compound, the “antifungal activity against Candida albicans ATCC 10231” value [3] was “does not exhibit antifungal activity”, the “stability of DD-peptidase inhibitory activity in the presence of class A β-lactamase” value ([4]; 24 h incubation in β-lactamase at room temperature) was “completely stable” and the “stability in a β-lactamase environment” value ([4]; initial incubation with β-lactamase, then DD-peptidase 64-575 II inhibition) was “stable in a β-lactamase environment”. For the same compound, the “inhibition of class A β-lactamase” value [5] was “did not inhibit”, the zone of inhibition at 400 µg/disc ([6]; after 15 h) was 20 mm and the zone of inhibition at 400 µg/disc ([6]; after 18 h) was 19 mm. It also gave a zone of inhibition at 400 µg/disc ([7]; after 15 h) of 19 mm, a zone of inhibition at 400 µg/disc ([7]; after 18 h) of 19 mm and a zone of inhibition at 400 µg/disc ([8]; after 15 h) of 16 mm. For the same compound, the zone of inhibition at 400 µg/disc ([8]; after 18 h) was 15 mm, the IC50 [9] was 0.00045 M and the IC50 [10] was 0.000675 M. For the same compound, the “life of the inhibitor-DD-peptidase R 61 complex” value [11] was “about 33 hours”, the MIC [12] was > 200 µg/mL and the MIC [13] was 200 µg/mL (≈ 965 µM). For the same compound, the MIC [14] was 200 µg/mL (≈ 965 µM), the MIC [15] was > 200 µg/mL and the MIC [16] was 200 µg/mL (≈ 965 µM). The MIC [17] was > 200 µg/mL, the MIC [18] was > 200 µg/mL and the MIC [19] was > 200 µg/mL. For the same compound, the MIC [20] was > 200 µg/mL, the MIC [21] was > 200 µg/mL and the MIC [22] was > 200 µg/mL.
